Test results published in US7070814B2, “Bioavailability / bioefficacy enhancing activity of Cuminum cyminum and extracts and fractions thereof” (Council of Scientific and Industrial Research, priority 2002, dated 2006).

assay: Bioavailability enhancement: drug, nutraceutical or herbal product given alone or with bioenhancer (BE) to fasted rats, blood (plasma) levels 0-24 hrs by HPLC; conditions: drug + BE from Cuminum cyminum (extract 16 mg/kg or fraction, rats) vs drug alone
Description: • 1. Bioenhancers (BEs) from Cuminum cyminum means either the aqueous, or 50% alcoholic extract or fractions No. 1 to 5. • 2. Piperine as Bioenhancer (BE) from Piper species means the molecule with characteristics as described in Example 2 of this invention. • 3.
• (i) Bioenhancer (BE) from Cuminum cyminum • Extract: 16 mg/kg body weight (Rats) • Fraction No. 1: 02–5 mg/kg body weight (rats) • Fraction No.2: 13-mg/kg body weight (Rats) • Fraction No. 3: 8 mg/kg body weight (Rats) • Fraction No. 4: 5 mg/kg body weight (Rats) • Fraction No. 5: 2.5 to 5 mg/kg body weight (Rats) • (ii) Piperine: 8 mg/kg body weight (Rats) As an example of an experiment in Rat (fasted): • Drug: Rifampicin, 40 mg/kg • BE (Cuminum cyminum): Doses as in Example No. 5 above. • BE (Cuminum cyminum)+Piperine: Doses as in Example No. 5 above.
Experimental procedure: Drug alone/or in combination with BE was administered to rats as per the following design: • Group 1: Control • Group 2: Rifampicin alone • Group 3: BE alone • Group 4: Rifampicin+BE (Cuminum cyminum) • Group 5: Rifampicin+BE (C. cyminum+piperine)
Blood from control/treated animals at predetermined intervals (0–24 hrs) (Total 14 timings). Rifampicin was extracted from the blood (plasma) using dichloromethane. The concentration of rifampicin in the samples was determined using HPLC (Model: Shimadzu 1080 BP); PDA detector; Mobile phase: phosphate buffer: acetonitile (40:60); Flow rate 1.0 ml/min. Column RP 18.
Control and BE only groups were employed to study the interference of plasma component and the bioenhancer used.
List of drugs, nutraceuticals, herbal formulations cited below as some of the example for the purpose of present invention.

SMILES | % Enhancement in bioavailability, BE from Cuminum cyminum [%]
Cc1nnc2n1-c1ccc(Cl)cc1C(c1ccccc1)=NC2 [Alprazolam] | 60

same assay, conditions: drug + piperine (8 mg/kg, rats) vs drug alone

SMILES | % Enhancement in bioavailability, Piperine as BE [%]
Cc1nnc2n1-c1ccc(Cl)cc1C(c1ccccc1)=NC2 [Alprazolam] | 98

same assay, conditions: drug + piperine + active molecule (rats) vs drug alone

SMILES | % Enhancement in bioavailability, Piperine + Active molecule [%]
Cc1nnc2n1-c1ccc(Cl)cc1C(c1ccccc1)=NC2 [Alprazolam] | 104

same assay, conditions: rat, in vivo

SMILES | % Enhancement in bioavailability, Piperine + Active molecule | % Enhancement in bioavailability, Piperine + BE from Cuminum cyminum
Nc1nc2c(ncn2COCCO)c(=O)[nH]1 [Acyclovir] | 98% | –
C=CC[C@@H]1/C=C(\C)C[C@H](C)C[C@H](OC)[C@H]2O[C@@](O)(C(=O)C(=O)N3CCCC[C@H]3C(=O)O[C@H](/C(C)=C/[C@@H]3CC[C@@H](O)[C@H](OC)C3)[C@H](C)[C@@H](O)CC1=O)[C@H](C)C[C@@H]2OC [Tacrolimus] | 117% | –
CN1C(C(=O)Nc2ccccn2)=C(O)c2ccccc2S1(=O)=O [Piroxicam] | 107% | –
CC1=C(C(=O)O)N2C(=O)[C@@H](NC(=O)[C@H](N)c3ccc(O)cc3)[C@H]2SC1 [Cefadroxil] | – | 79%
CC1COc2c(N3CCN(C)CC3)c(F)cc3c(=O)c(C(=O)O)cn1c23 (stereo not shown) [O-floxacin, Ofloxacin] | 73% | –
CO[C@H]1/C=C/O[C@@]2(C)Oc3c(C)c(O)c4c(O)c(c(/C=N/N5CCN(C)CC5)c(O)c4c3C2=O)NC(=O)/C(C)=C\C=C\[C@H](C)[C@H](O)[C@@H](C)[C@@H](O)[C@@H](C)[C@H](OC(C)=O)[C@@H]1C [Rifampicin] | 366% | –
C=CC1=C(C(=O)O)N2C(=O)[C@@H](NC(=O)/C(=N\OCC(=O)O)c3csc(N)n3)[C@H]2SC1 [Cefixime] | – | Nil
NCCCC[C@H](N[C@@H](CCc1ccccc1)C(=O)O)C(=O)N1CCC[C@H]1C(=O)O [Lisinopril] | 98% | –
COc1ccc2[nH]c([S+]([O-])Cc3ncc(C)c(OC)c3C)nc2c1 (stereo not shown) [Omeprazole] | – | Nil
CC(C)NCC(O)COc1cccc2ccccc12 (stereo not shown) [Propranolol] | 210% | –
CCc1cc(C(N)=S)ccn1 [Ethionamide] | 65% | –
COc1c(C)c2c(c(O)c1C/C=C(\C)CCC(=O)OCCN1CCOCC1)C(=O)OC2 [Mycophenolate Mofeit, Mycophenolate mofetil] | Nil | –
CNC(=C[N+](=O)[O-])NCCSCc1ccc(CN(C)C)o1 [Ranitidine] | – | 89%
Cc1cn([C@H]2C[C@H](N=[N+]=[N-])[C@@H](CO)O2)c(=O)[nH]c1=O [Zidovudine] | 415% | –
CS(=O)(=O)Nc1ccc([N+](=O)[O-])cc1Oc1ccccc1 [Nimesulide] | 150% | –
Nc1ccc(S(=O)(=O)c2ccc(N)cc2)cc1 [Dapsone] | 75% | –
COc1cccc2c1C(=O)c1c(O)c3c(c(O)c1C2=O)C[C@@](O)(C(=O)CO)C[C@@H]3O[C@H]1C[C@H](N)[C@H](O)[C@H](C)O1 [Doxorubicin] | 103% | –
CCn1cc(C(=O)O)c(=O)c2cc(F)c(N3CCNCC3)cc21 [Norfloxacin] | Negligible | –
CC[C@H]1OC(=O)[C@H](C)[C@@H](O[C@H]2C[C@@](C)(OC)[C@@H](O)[C@H](C)O2)[C@H](C)[C@@H](O[C@@H]2O[C@H](C)C[C@H](N(C)C)[C@H]2O)[C@](C)(O)C[C@@H](C)CN(C)[C@H](C)[C@@H](O)[C@]1(C)O [Azithromycin] | 97% | –
CC1(C)S[C@@H]2[C@H](NC(=O)[C@H](N)c3ccc(O)cc3)C(=O)N2[C@H]1C(=O)O [Amoxycillin] | 98% | –

SMILES | % Enhancement in bioavailability, Piperine + Active molecule | % Enhancement in bioavailability, Piperine + BE from Cuminum cyminum
CN(Cc1cc(Br)cc(Br)c1N)C1CCCCC1 [Bromhexine] | 90% | –
O=C(O)Cc1ccccc1Nc1c(Cl)cccc1Cl [Diclofenac] | 108% | –
CC(C)(C)NCC(O)c1ccc(O)c(CO)c1 (stereo not shown) [Salbutamol] | 85% | –
CN(Cc1cnc2nc(N)nc(N)c2n1)c1ccc(C(=O)N[C@@H](CCC(=O)O)C(=O)O)cc1 [Methotrexate] | 30% | –
CCOC(=O)C1=C(COCCN)NC(C)=C(C(=O)OC)C1c1ccccc1Cl (stereo not shown) [Amlodipine] | 103% | –
CC[C@@H](CO)NCCN[C@@H](CC)CO [Ethambutol] | Nil | –
O=C(CCCN1CCC(O)(c2ccc(Cl)cc2)CC1)c1ccc(F)cc1 [Haloperidol] | Nil | –
CN/C(=N/CCSCc1nc[nH]c1C)NC#N [Cimetidine] | – | 105%
CO/N=C(\C(=O)N[C@@H]1C(=O)N2C(C(=O)O)=C(CSc3nc(=O)c(O)nn3C)CS[C@H]12)c1csc(N)n1 [Cefatrioxone] | – | Nil
NC(=O)c1cnccn1 [Pyrazinamide] | Nil | –
CC[C@H]1OC(=O)[C@H](C)[C@@H](O[C@H]2C[C@@](C)(OC)[C@@H](O)[C@H](C)O2)[C@H](C)[C@@H](O[C@@H]2O[C@H](C)C[C@H](N(C)C)[C@H]2O)[C@](C)(O)C[C@@H](C)/C(=N\OCOCCOC)[C@H](C)[C@@H](O)[C@]1(C)O [Roxythromycin] | 103% | –
CS(=O)(=O)c1ccc(C2=C(c3ccccc3)C(=O)OC2)cc1 [Rofecoxib] | Negligible | –
NNC(=O)c1ccncc1 [Isoniazid] | Negligible | –
Cn1c(=O)c2[nH]cnc2n(C)c1=O [Theophylline] | 75% | –
CC(=O)N1CCN(c2ccc(OCC3COC(Cn4ccnc4)(c4ccc(Cl)cc4Cl)O3)cc2)CC1 (stereo not shown) [Ketoconazole] | 156% | –
Cc1onc(-c2ccccc2Cl)c1C(=O)N[C@@H]1C(=O)N2[C@@H]1SC(C)(C)[C@@H]2C(=O)O [Cloxacillin] | 95% | –
NCC[C@H](O)C(=O)N[C@@H]1C[C@H](N)[C@@H](O[C@H]2O[C@H](CN)[C@@H](O)[C@H](O)[C@H]2O)[C@H](O)[C@H]1O[C@H]1O[C@H](CO)[C@@H](O)[C@H](N)[C@H]1O [Amikacin] | Nil | –
CC[C@H]1OC(=O)[C@H](C)[C@@H](O[C@H]2C[C@@](C)(OC)[C@@H](O)[C@H](C)O2)[C@H](C)[C@@H](O[C@@H]2O[C@H](C)C[C@H](N(C)C)[C@H]2O)[C@](C)(O)C[C@@H](C)C(=O)[C@H](C)[C@@H](O)[C@]1(C)O [Erythromycin] | 95% | –
N[C@@H]1CON=C1O [Cycloserine] | 90% | –
O=c1[nH]cc(F)c(=O)[nH]1 [5-Fluorouracil] | 435% | –
